The values that follow come from patent US9517238B2, “Compositions and methods for treating allergic inflammation through inhibition of NTRK1” (CHILDREN'S HOSPITAL MEDICAL CENTER, priority 2014, dated 2016).

One experiment has as its target T1, NTRK1 (Homo sapiens, UniProt P04629).
T1 construct: expressed in transfected cells
The experiment can be described thus: NGF-mediated induction of EGR genes in TE-7 cells stably expressing NTRK1, with tyrosine kinase inhibitors. The format is cell-based. The conditions noted are these: TE-7 epithelial cells, NGF stimulation. The source says:
In order to further investigate the functional link between IL-13 and NGF signaling we generated two pools of TE-7 cells stably expressing NTRK1 that allowed us to simultaneously induce IL-13 and NGF/NTRK1 responses.
We further hypothesized that inhibition of NTRK1 kinase activity will prevent induction of EGR genes following NGF stimulation. To test this hypothesis we utilized two tyrosine kinase inhibitors lestaurtinib (CEP-701) and crizotinib that were previously reported as efficient blockers of NTRK1 auto-phosphorylation and downstream signaling.

In experiment [1] the test system is NTRK1 expression in esophageal biopsies. The experiment can be described thus: RT-PCR analysis of NTRK1 in esophageal biopsies of EoE patients after swallowed steroid treatment. Format: in vivo, human. The conditions noted are these: EoE patients who responded to swallowed steroid treatment (FPR, n=13) vs active EoE and controls; FIG. 4A. The procedure:
FIG. 4. NTRK1, NGF, and EGR1 expression in human allergic inflammation. In A, RT-PCR analysis of NTRK1 in biopsies was performed in unaffected control patients (Ctrl, n=13), patients with active EoE (EoE, n=12), and EoE patients who responded to swallowed steroid treatment (fluticasone responders [FPR], n=13); ***p<0.001; ns, not significant. In B and C, the graphs show Pearson correlation of NTRK1 expression with IL-13 levels and peak eosinophil counts in EoE biopsies. […] In E, quantification of NTRK1 in control and active EoE biopsies is shown (n=5 each); *p<0.05. Expression level was normalized to the level of GAPDH. In F, RT-PCR analysis of NGF and CCL26 was performed in control and EoE biopsies (n=10 each); ****p<0.0001; ns, not significant. In G, amount of NGF and CCL26 protein was measured by ELISA in control and active EoE biopsies (n=5 each); *p<0.05; ns, not significant. […] In I, EGR1 mRNA was measured by RT-PCR in esophageal biopsies of unaffected control (Ctrl) patients and patients with active EoE (n=10 each). ***p<0.001. […]
In vitro experiments with epithelial cells prompted us to investigate whether NTRK1 is increased in epithelial cells in vivo during allergic responses. First, we assessed expression of NTRK1 mRNA in esophageal biopsies of control and EoE patients. […]

T1 sequence (P04629 33-796): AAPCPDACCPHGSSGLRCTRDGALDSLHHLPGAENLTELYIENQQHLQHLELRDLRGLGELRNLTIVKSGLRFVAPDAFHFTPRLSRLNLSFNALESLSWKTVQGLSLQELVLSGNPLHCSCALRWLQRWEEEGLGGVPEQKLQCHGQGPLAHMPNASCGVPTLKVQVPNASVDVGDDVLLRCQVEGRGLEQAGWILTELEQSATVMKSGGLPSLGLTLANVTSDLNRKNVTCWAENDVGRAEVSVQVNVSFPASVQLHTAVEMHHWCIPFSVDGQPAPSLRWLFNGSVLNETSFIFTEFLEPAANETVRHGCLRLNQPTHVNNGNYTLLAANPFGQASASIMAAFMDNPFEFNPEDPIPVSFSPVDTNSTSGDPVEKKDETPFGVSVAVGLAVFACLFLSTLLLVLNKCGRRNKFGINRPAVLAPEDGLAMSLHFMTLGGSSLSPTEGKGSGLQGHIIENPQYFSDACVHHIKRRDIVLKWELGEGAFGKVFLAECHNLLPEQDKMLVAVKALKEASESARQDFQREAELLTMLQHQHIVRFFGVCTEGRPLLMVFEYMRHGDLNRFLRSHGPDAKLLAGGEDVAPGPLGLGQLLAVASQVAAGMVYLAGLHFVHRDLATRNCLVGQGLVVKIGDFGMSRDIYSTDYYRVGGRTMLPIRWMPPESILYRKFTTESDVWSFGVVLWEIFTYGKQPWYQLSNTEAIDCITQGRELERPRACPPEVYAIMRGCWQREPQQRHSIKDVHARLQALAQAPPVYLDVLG

In the case of `C[C@@H](Oc1cc(-c2cnn(C3CCNCC3)c2)cnc1N)c1c(Cl)ccc(F)c1Cl` [crizotinib], the “NGF-mediated increase in EGR1 mRNA” value on NTRK1 (EGR1 mRNA) was “dramatically reduced”. The “NGF-mediated increase in EGR3 mRNA” value on NTRK1 (EGR3 mRNA) is “dramatically reduced”.
As to `CCC(=O)O[C@]1(C(=O)SCF)[C@H](C)C[C@H]2[C@@H]3C[C@H](F)C4=CC(=O)C=C[C@]4(C)[C@@]3(F)[C@@H](O)C[C@@]21C` [fluticasone propionate], the “NTRK1 mRNA expression in esophageal biopsies” value in experiment [1] is recorded as “normalized levels”.
